Assays:
[1] = test system: pressurized rat cerebral arteries; experiment: Arterial diameter recordings (constriction) in pressurized cerebral arteries; format: cell-based; details: for change in lumen diameter: Ca2+ returned to superfusate in the presence of UTP and nimodipine; for decrease of resting diameter: extracellular KCl raised from 5 mM to 60 mM; for myogenic tone: intravascular pressure increased from 20 to 80 mm Hg
Text: Oligodeoxynucleotide Sequences and Reverse Permeabilization. TRPC6 sense and antisense oligodeoxynucleotides (ODN's) were designed as previously described (Welsh et al 2002 Circ Res 90, 248-250) and were as follows: sense, 5′-[…]-3′ (SEQ ID: 3) and 5′-GCACACGCAGCCTCTTCAC-3′ (SEQ ID: 4) antisense, 5′-[…]-3′ (SEQ ID: 5) and 5′-[…]-3′ (SEQ ID: 6). TRPC3 sense and antisense ODN's were designed based on the rat TRPC3 gene (Ohki et al 2000 J Biol Chem 275: 39055-39060) and are as follows: sense, 5′-[…]-3′ (SEQ ID: 7) and 5′-[…]-3′ (SEQ ID: 8); anti-sense, 5′-[…]-3′ (SEQ ID: 9) and 5′-[…]-3′ (SEQ ID: 10). The last five bases on the 5′ and 3′ end were phosphorothioated in order to limit ODN degradation. For some experiments fluoroscein-isothiocyanate was conjugated to the 5′ end to allow for histological assessment of cellular uptake of the ODNs. All ODNs were synthesized and HPLC purified commercially by Qiagen (Alameda, Calif., USA). Sense and antisense ODN's (2 μM) were introduced into the arterial SMs using a reversible permeabilization procedure (Lesh et al 1995 Circ Res 77,220-230)). The arterial segments were then organ cultured for 3 days in D-MEM/F-12 culture media with L-glutamine (2 mM), penicillin (50 units/ml) and streptomycin (50 μg/ml) prior to use.
Diameter and membrane potential recordings. Endothelial cell denuded artery segments were mounted on glass pipettes in an arteriograph chamber (Living Systems, Burlington, Vt., USA), pressurized to 20 mmHg (with no flow), and superfused with warm (37° C.), gassed (95% 02/5% CO2) physiological saline solution (PSS) containing (in mM): 119 NaCl, 4.7 KCl, 24 NaHCO3, 0.2 KH2PO4, […], 1.2 MgSO4, 1.6 CaCl2, and 10.6 glucose, pH 7.4. In experiments using Ca^2+-free PSS, CaCl2 was omitted and 3 mM EGTA and 30 μM diltiazem added. In experiments with diacylglycerol induction, 300 μM of the diacylglycerol analogue OAG (1-oleyol-2-acetyl-sn-glycerol) was added. The endothelium was removed as previously described (Sun et al 1993 Endothelium 1, 115-122). To verify endothelial cell removal the arteries were pressurized to 60 mmHg and allowed to develop myogenic tone prior to exposing the vessels to 1 μM UTP. Absence of a dilation or biphasic constrictor response to 1 μM UTP indicated successful endothelial cell removal (Marelli 2001 Am J Physiol Heart Cir Physiol 281, H1759-H1766; Miyagi et al 1996 Br J Pharmacol 118, 847-856). […] Membrane potential was measured by inserting a sharp glass electrode (≈100 MΩ resistance) containing 0.5M KCl into the vessel wall. The criteria for successful vascular smooth muscle cell impalement were: (1) a sharp negative Vm deflection on entry; (2) a stable potential for at least 1 minute after entry; and (3) a sharp positive Vm deflection upon removal. Measurements were made using an electrometer (World Precision Instruments) and the data were recorded via computer using Axotape and Dataq software. Arterial diameter was measured using a video dimension analyzer (IonOptix Corporation; Milton, Mass.).
Statistical analysis. Data are expressed as means±SEM, and n indicates the number of animals. Changes in arterial diameter were measured as a percent constriction calculated as follows: [formula]

[2] = test system: pressurized rat cerebral arteries; experiment: Arterial wall Ca2+ concentration measurement (FURA-2) in isolated arteries; format: cell-based; details: for change in arterial wall Ca2+: Ca2+ returned to superfusate in the presence of UTP and nimodipine
Experimental: Diameter and membrane potential recordings. […] In experiments using Ca^2+-free PSS, CaCl2 was omitted and 3 mM EGTA and 30 μM diltiazem added. In experiments with diacylglycerol induction, 300 μM of the diacylglycerol analogue OAG (1-oleyol-2-acetyl-sn-glycerol) was added. […] To verify endothelial cell removal the arteries were pressurized to 60 mmHg and allowed to develop myogenic tone prior to exposing the vessels to 1 μM UTP. […] Arterial diameter or membrane potential (Vm) of sense and anti-sense treated arteries was measured in the absence (control) or presence of UTP (concentration range: 0.1 to 10 μM). Membrane potential was measured by inserting a sharp glass electrode (≈100 MΩ resistance) containing 0.5M KCl into the vessel wall. […] Measurements were made using an electrometer (World Precision Instruments) and the data were recorded via computer using Axotape and Dataq software. Arterial diameter was measured using a video dimension analyzer (IonOptix Corporation; Milton, Mass.).
Ca^2+ concentration measurement in isolated arteries. Mounted arteries were equilibrated in 1.6 m M PSS for 40 minutes at 37° C. (pH 7.4) prior to loading the vascular smooth muscle cells with the Ca^2+-sensitive fluorescent dye, FURA-2. To load the cells, the 1.6 mM PSS was gradually replaced over 5 minutes with HEPES solution (25° C., pH 7.4). A total of 40 μL of a premixed 100 μM FURA-2-acetoxymethyl ester solution (100 μg FURA-2, 200 μL Pluronic acid, 800 μL DMSO) was added directly to the HEPES to give a final concentration of 2 μM FURA-2 AM. Loading continued in the dark at 25° C. (pH 7.4) for 40 minutes. At the end of the loading period, the HEPES was replaced with 1.6 mM PSS (35° C., pH 7.4) and 30 minutes was allowed for complete de-esterification of the FURA-2 AM before [Ca^2+]c measurements were made. FURA-2 fluorescence was measured using a photomultiplier system (IonOptix Corporation; Milton, Mass., USA) in which background-corrected ratios of the 510-nm emission from arteries alternatively excited at 340 and 380 nm were obtained at a sampling rate of 5 Hz.

[3] = 1 μM UTP, paired arteries, original recordings (FIG. 7A)

Substance | generalized inhibitory effect on arterial contractility [1] | constriction [1, 3] [%] | constriction ([1]; 300 μM OAG) [%] | reduction of UTP-induced constriction compared with sense-treated arteries ([1]; 10^−5 M UTP) [%] | reduction of UTP-induced constriction compared with sense-treated arteries ([1]; 10^−6 M UTP) | change in lumen diameter [1] [μm] | decrease of resting diameter [1] [%] | myogenic tone [1] [%] | constrictions versus sense treated arteries ([1]; low concentration of UTP (0.1 to 1.0 μM)) | increase in arterial wall Ca2+ ([2]; 300 μM OAG) [nM] | change in arterial wall Ca2+ [2] [nM]
5′-GAGAACCATGAACTGGAATA-3′ (SEQ ID: 9) and 5′-ACGACCAACACGACCAGACA-3′ (SEQ ID: 10) (phosphorothioate ends, further chemistry not given here) [TRPC3 antisense, antisense ODNs based on the rat TRPC3 gene; last five bases on the 5′ and 3′ end phosphorothioated] | no generalized inhibitory effect | 30 | 1±1 | 37 | approximately 61% | −85±17 | 57±9 | 27±5 | significantly less | 6 ± 2 | 50 ± 12
5′-TATTCCAGTTCATGGTTCTC-3′ (SEQ ID: 7) and 5′-TGTCTGGTCGTGTTGGTCGT-3′ (SEQ ID: 8) (phosphorothioate ends, further chemistry not given here) [TRPC3 sense, sense control ODNs based on the rat TRPC3 gene; end bases phosphorothioated] |  | 38 | 17±3 |  |  | −128±8 | 58±12 | 26±4 |  |  | 100 ± 22

Reference: patent US20060217340A1, “Methods and products for treating hypertension by modulation of TRPC3 channel activity” (University of Vermont and State Agricultural College, priority 2005, published 2006)
